In ChEMBL document CHEMBL1147101, “Development and persistence of antimicrobial resistance in Pseudomonas aeruginosa: a longitudinal observation in mechanically ventilated patients” (Antimicrob Agents Chemother, 2007):
Activity calls are given as the source filed them. The calls are words filed in the database; no cut-off is given here.

Legend:
Assay type in all cases: functional, organism-based
Details in all cases: Trachea
[1] = system: Pseudomonas aeruginosa; assay: Antimicrobial activity against Pseudomonas aeruginosa 1A9 tracheal isolates from mechanically ventilated tuberculosis patient
[2] = system: Pseudomonas aeruginosa; assay: Antimicrobial activity against Pseudomonas aeruginosa 1B9 tracheal isolates from mechanically ventilated tuberculosis patient
[3] = system: Pseudomonas aeruginosa; assay: Antimicrobial activity against Pseudomonas aeruginosa 13E1 tracheal isolates from mechanically ventilated chronic respiratory insufficiency patient
[4] = system: Pseudomonas aeruginosa; assay: Antimicrobial activity against Pseudomonas aeruginosa 15G2 tracheal isolates from mechanically ventilated chronic respiratory insufficiency patient
[5] = system: Pseudomonas aeruginosa; assay: Antimicrobial activity against Pseudomonas aeruginosa 2C1 tracheal isolates from mechanically ventilated tuberculosis patient
[6] = system: Pseudomonas aeruginosa; assay: Antimicrobial activity against Pseudomonas aeruginosa 2A2 tracheal isolates from mechanically ventilated tuberculosis patient
[7] = system: Pseudomonas aeruginosa; assay: Antimicrobial activity against Pseudomonas aeruginosa 2C2 tracheal isolates from mechanically ventilated tuberculosis patient
[8] = system: Pseudomonas aeruginosa; assay: Antimicrobial activity against Pseudomonas aeruginosa 2A3 tracheal isolates from mechanically ventilated tuberculosis patient
[9] = system: Pseudomonas aeruginosa; assay: Antimicrobial activity against Pseudomonas aeruginosa 2A5 tracheal isolates from mechanically ventilated tuberculosis patient
[10] = system: Pseudomonas aeruginosa; assay: Antimicrobial activity against Pseudomonas aeruginosa 2A6 tracheal isolates from mechanically ventilated tuberculosis patient
[11] = system: Pseudomonas aeruginosa; assay: Antimicrobial activity against Pseudomonas aeruginosa 2F6 tracheal isolates from mechanically ventilated tuberculosis patient
[12] = system: Pseudomonas aeruginosa; assay: Antimicrobial activity against Pseudomonas aeruginosa 2A7 tracheal isolates from mechanically ventilated tuberculosis patient
[13] = system: Pseudomonas aeruginosa; assay: Antimicrobial activity against Pseudomonas aeruginosa 2A9 tracheal isolates from mechanically ventilated tuberculosis patient
[14] = system: Pseudomonas aeruginosa; assay: Antimicrobial activity against Pseudomonas aeruginosa 3B1 tracheal isolates from mechanically ventilated tuberculosis patient
[15] = system: Pseudomonas aeruginosa; assay: Antimicrobial activity against Pseudomonas aeruginosa 65.68-1 tracheal isolates from mechanically ventilated tuberculosis patient
[16] = system: Pseudomonas aeruginosa; assay: Antimicrobial activity against Pseudomonas aeruginosa 65.68-2 tracheal isolates from mechanically ventilated tuberculosis patient
[17] = system: Pseudomonas aeruginosa; assay: Antimicrobial activity against Pseudomonas aeruginosa 65.68-3 tracheal isolates from mechanically ventilated tuberculosis patient
[18] = system: Pseudomonas aeruginosa; assay: Antimicrobial activity against Pseudomonas aeruginosa 65.68-4 tracheal isolates from mechanically ventilated tuberculosis patient
[19] = system: Pseudomonas aeruginosa; assay: Antimicrobial activity against Pseudomonas aeruginosa 16D5 tracheal isolates from mechanically ventilated chronic respiratory insufficiency patient
[20] = system: Pseudomonas aeruginosa; assay: Antimicrobial activity against Pseudomonas aeruginosa 19B3 tracheal isolates from mechanically ventilated chronic respiratory insufficiency patient
[21] = system: Pseudomonas aeruginosa; assay: Antimicrobial activity against Pseudomonas aeruginosa 19B6 tracheal isolates from mechanically ventilated chronic respiratory insufficiency patient
[22] = system: Pseudomonas aeruginosa; assay: Antimicrobial activity against Pseudomonas aeruginosa 19C7 tracheal isolates from mechanically ventilated chronic respiratory insufficiency patient
[23] = system: Pseudomonas aeruginosa; assay: Antimicrobial activity against Pseudomonas aeruginosa 3D1 tracheal isolates from mechanically ventilated chronic respiratory insufficiency patient
[24] = system: Pseudomonas aeruginosa; assay: Antimicrobial activity against Pseudomonas aeruginosa 3E2 tracheal isolates from mechanically ventilated chronic respiratory insufficiency patient
[25] = system: Pseudomonas aeruginosa; assay: Antimicrobial activity against Pseudomonas aeruginosa 5F2 tracheal isolates from mechanically ventilated chronic respiratory insufficiency patient
[26] = system: Pseudomonas aeruginosa; assay: Antimicrobial activity against Pseudomonas aeruginosa 5F8 tracheal isolates from mechanically ventilated chronic respiratory insufficiency patient
[27] = system: Pseudomonas aeruginosa; assay: Antimicrobial activity against Pseudomonas aeruginosa 5G3 tracheal isolates from mechanically ventilated chronic respiratory insufficiency patient
[28] = system: Pseudomonas aeruginosa; assay: Antimicrobial activity against Pseudomonas aeruginosa 8A12 tracheal isolates from mechanically ventilated chronic respiratory insufficiency patient
[29] = system: Pseudomonas aeruginosa; assay: Antimicrobial activity against Pseudomonas aeruginosa 8C4 tracheal isolates from mechanically ventilated chronic respiratory insufficiency patient
[30] = system: Pseudomonas aeruginosa; assay: Antimicrobial activity against Pseudomonas aeruginosa 8B11 tracheal isolates from mechanically ventilated chronic respiratory insufficiency patient
[31] = system: Pseudomonas aeruginosa; assay: Antimicrobial activity against Pseudomonas aeruginosa 9A1 tracheal isolates from mechanically ventilated chronic respiratory insufficiency patient
[32] = system: Pseudomonas aeruginosa; assay: Antimicrobial activity against Pseudomonas aeruginosa 9A7 tracheal isolates from mechanically ventilated chronic respiratory insufficiency patient
[33] = system: Pseudomonas aeruginosa; assay: Antimicrobial activity against Pseudomonas aeruginosa 9A10 tracheal isolates from mechanically ventilated chronic respiratory insufficiency patient
[34] = system: Pseudomonas aeruginosa; assay: Antimicrobial activity against Pseudomonas aeruginosa 9B5 tracheal isolates from mechanically ventilated chronic respiratory insufficiency patient
[35] = system: Pseudomonas aeruginosa; assay: Antimicrobial activity against Pseudomonas aeruginosa 10A6 tracheal isolates from mechanically ventilated chronic respiratory insufficiency patient
[36] = system: Pseudomonas aeruginosa; assay: Antimicrobial activity against Pseudomonas aeruginosa 10A9 tracheal isolates from mechanically ventilated chronic respiratory insufficiency patient
[37] = system: Pseudomonas aeruginosa; assay: Antimicrobial activity against Pseudomonas aeruginosa 10B1 tracheal isolates from mechanically ventilated chronic respiratory insufficiency patient
[38] = system: Pseudomonas aeruginosa; assay: Antimicrobial activity against Pseudomonas aeruginosa 10B3 tracheal isolates from mechanically ventilated chronic respiratory insufficiency patient
[39] = system: Pseudomonas aeruginosa; assay: Antimicrobial activity against Pseudomonas aeruginosa 29F6 tracheal isolates from mechanically ventilated chronic respiratory insufficiency patient
[40] = system: Pseudomonas aeruginosa; assay: Antimicrobial activity against Pseudomonas aeruginosa 29G6 tracheal isolates from mechanically ventilated chronic respiratory insufficiency patient
[41] = system: Pseudomonas aeruginosa; assay: Antimicrobial activity against Pseudomonas aeruginosa 29G7 tracheal isolates from mechanically ventilated chronic respiratory insufficiency patient
[42] = system: Pseudomonas aeruginosa; assay: Antimicrobial activity against Pseudomonas aeruginosa 29G8 tracheal isolates from mechanically ventilated chronic respiratory insufficiency patient
[43] = system: Pseudomonas aeruginosa; assay: Antimicrobial activity against Pseudomonas aeruginosa 19E2 tracheal isolates from mechanically ventilated chronic respiratory insufficiency patient
[44] = system: Pseudomonas aeruginosa; assay: Antimicrobial activity against Pseudomonas aeruginosa 22D2 tracheal isolates from mechanically ventilated chronic respiratory insufficiency patient
[45] = system: Pseudomonas aeruginosa; assay: Antimicrobial activity against Pseudomonas aeruginosa 22D6 tracheal isolates from mechanically ventilated chronic respiratory insufficiency patient
[46] = system: Pseudomonas aeruginosa; assay: Antimicrobial activity against Pseudomonas aeruginosa 22D9 tracheal isolates from mechanically ventilated chronic respiratory insufficiency patient
[47] = system: Pseudomonas aeruginosa; assay: Antimicrobial activity against Pseudomonas aeruginosa 22E1 tracheal isolates from mechanically ventilated chronic respiratory insufficiency patient
[48] = system: Pseudomonas aeruginosa; assay: Antimicrobial activity against Pseudomonas aeruginosa 22E3 tracheal isolates from mechanically ventilated chronic respiratory insufficiency patient
[49] = system: Pseudomonas aeruginosa; assay: Antimicrobial activity against Pseudomonas aeruginosa 24E5 tracheal isolates from mechanically ventilated chronic respiratory insufficiency patient
[50] = system: Pseudomonas aeruginosa; assay: Antimicrobial activity against Pseudomonas aeruginosa P21.21 tracheal isolates from mechanically ventilated tuberculosis patient
[51] = system: Pseudomonas aeruginosa; assay: Antimicrobial activity against Pseudomonas aeruginosa 65.18-4 tracheal isolates from mechanically ventilated tuberculosis patient
[52] = system: Pseudomonas aeruginosa; assay: Antimicrobial activity against Pseudomonas aeruginosa P21.23 tracheal isolates from mechanically ventilated tuberculosis patient
[53] = system: Pseudomonas aeruginosa; assay: Antimicrobial activity against Pseudomonas aeruginosa 65.33-1 tracheal isolates from mechanically ventilated tuberculosis patient
[54] = system: Pseudomonas aeruginosa; assay: Antimicrobial activity against Pseudomonas aeruginosa 65.33-2 tracheal isolates from mechanically ventilated tuberculosis patient
[55] = system: Pseudomonas aeruginosa; assay: Antimicrobial activity against Pseudomonas aeruginosa 65.33-4 tracheal isolates from mechanically ventilated tuberculosis patient
[56] = system: Pseudomonas aeruginosa; assay: Antimicrobial activity against Pseudomonas aeruginosa 65.36-2 tracheal isolates from mechanically ventilated tuberculosis patient
[57] = system: Pseudomonas aeruginosa; assay: Antimicrobial activity against Pseudomonas aeruginosa 65.36-3 tracheal isolates from mechanically ventilated tuberculosis patient
[58] = system: Pseudomonas aeruginosa; assay: Antimicrobial activity against Pseudomonas aeruginosa 65.36-4 tracheal isolates from mechanically ventilated tuberculosis patient
[59] = system: Pseudomonas aeruginosa; assay: Antimicrobial activity against Pseudomonas aeruginosa 65.38-1 tracheal isolates from mechanically ventilated tuberculosis patient
[60] = system: Pseudomonas aeruginosa; assay: Antimicrobial activity against Pseudomonas aeruginosa 24G1 tracheal isolates from mechanically ventilated chronic respiratory insufficiency patient

With `O=C(O)c1cn(C2CC2)c2cc(N3CCNCC3)c(F)cc2c1=O` the Activity [1] was “Active”, the Activity [2] was “Active” and the Activity [3] was “Active”. For the same compound, the Activity [4] was “inactive”, the Activity [5] was “Active” and the Activity [6] was “Active”. For the same compound, the Activity [7] was “Active”, the Activity [8] was “Active” and the Activity [9] was “Active”. The Activity [10] was “Active”, the Activity [11] was “Active” and the Activity [12] was “Active”. For the same compound, the Activity [13] was “Active”, the Activity [14] was “Active” and the Activity [15] was “Active”. For the same compound, the Activity [16] was “Active”, the Activity [17] was “Active” and the Activity [18] was “Active”. For the same compound, the Activity [19] was “Active”, the Activity [20] was “Active” and the Activity [21] was “Active”. For the same compound, the Activity [22] was “Active”, the Activity [23] was “Active” and the Activity [24] was “Active”. The Activity [25] was “Active”, the Activity [26] was “Active” and the Activity [27] was “Active”. The Activity [28] was “Active”, the Activity [29] was “Active” and the Activity [30] was “Active”. For the same compound, the Activity [31] was “Active”, the Activity [32] was “Active” and the Activity [33] was “Active”. The Activity [34] was “Active”, the Activity [35] was “Active” and the Activity [36] was “Active”. The Activity [37] was “Active”, the Activity [38] was “Active” and the Activity [39] was “Active”. For the same compound, the Activity [40] was “Active”, the Activity [41] was “Active” and the Activity [42] was “Active”. For the same compound, the Activity [43] was “Active”, the Activity [44] was “Active” and the Activity [45] was “Active”. The Activity [46] was “Active”, the Activity [47] was “Active” and the Activity [48] was “Active”. The Activity [49] was “Active”, the Activity [50] was “Active” and the Activity [51] was “Active”. For the same compound, the Activity [52] was “Active”, the Activity [53] was “Active” and the Activity [54] was “Active”. For the same compound, the Activity [55] was “Active”, the Activity [56] was “Active” and the Activity [57] was “Active”. The Activity [58] was “Active” and the Activity [59] was “Active”.

For `C[C@@H](O)[C@H]1C(=O)N2C(C(=O)O)=C(SCCNC=N)C[C@H]12`, the Activity [1] was “inactive”, the Activity [2] was “inactive” and the Activity [3] was “Active”. The Activity [4] was “Active”, the Activity [5] was “inactive” and the Activity [6] was “inactive”. For the same compound, the Activity [7] was “inactive”, the Activity [8] was “inactive” and the Activity [9] was “Active”. The Activity [10] was “inactive”, the Activity [11] was “inactive” and the Activity [12] was “inactive”. The Activity [13] was “inactive”, the Activity [14] was “inactive” and the Activity [15] was “inactive”. For the same compound, the Activity [16] was “inactive”, the Activity [17] was “inactive” and the Activity [18] was “inactive”. The Activity [19] was “Active”, the Activity [20] was “Active” and the Activity [21] was “Active”. For the same compound, the Activity [22] was “Active”, the Activity [23] was “Active” and the Activity [24] was “Active”. The Activity [25] was “Active”, the Activity [26] was “Active” and the Activity [27] was “Active”. For the same compound, the Activity [28] was “Active”, the Activity [29] was “Active” and the Activity [30] was “Active”. For the same compound, the Activity [31] was “Active”, the Activity [32] was “Active” and the Activity [33] was “Active”. For the same compound, the Activity [34] was “Active”, the Activity [35] was “Active” and the Activity [36] was “Active”. The Activity [37] was “Active”, the Activity [38] was “Active” and the Activity [60] was “Active”. The Activity [39] was “Active”, the Activity [40] was “Active” and the Activity [41] was “Active”. The Activity [43] was “Active”, the Activity [44] was “Active” and the Activity [45] was “Active”. For the same compound, the Activity [46] was “Active”, the Activity [47] was “Active” and the Activity [48] was “Active”. The Activity [49] was “Active”, the Activity [50] was “Active” and the Activity [51] was “inactive”. For the same compound, the Activity [52] was “Active”, the Activity [53] was “inactive” and the Activity [54] was “inactive”. The Activity [55] was “inactive”, the Activity [56] was “inactive” and the Activity [57] was “inactive”. The Activity [58] was “inactive” and the Activity [59] was “inactive”.
